How the values were obtained:
[1] = molecular target: T1, IL-6 receptor (Homo sapiens, UniProt P08887); assay: Inhibition of the binding of 125I-IL-6 to its receptor in U266 myeloma cells (Radioligand Binding); conditions: 125I-IL-6 0.08 nM, sample 1 mg/ml, 4° C. 16 hours, both medium and low MW
T1 construct: the line of human myeloma U266 was used, sensitive to the cytotoxic activity of IL-6, expressing its relative receptor; endogenous in cells; host or cells: U266 human myeloma (whole cells)
T1 sequence (P08887 20-468): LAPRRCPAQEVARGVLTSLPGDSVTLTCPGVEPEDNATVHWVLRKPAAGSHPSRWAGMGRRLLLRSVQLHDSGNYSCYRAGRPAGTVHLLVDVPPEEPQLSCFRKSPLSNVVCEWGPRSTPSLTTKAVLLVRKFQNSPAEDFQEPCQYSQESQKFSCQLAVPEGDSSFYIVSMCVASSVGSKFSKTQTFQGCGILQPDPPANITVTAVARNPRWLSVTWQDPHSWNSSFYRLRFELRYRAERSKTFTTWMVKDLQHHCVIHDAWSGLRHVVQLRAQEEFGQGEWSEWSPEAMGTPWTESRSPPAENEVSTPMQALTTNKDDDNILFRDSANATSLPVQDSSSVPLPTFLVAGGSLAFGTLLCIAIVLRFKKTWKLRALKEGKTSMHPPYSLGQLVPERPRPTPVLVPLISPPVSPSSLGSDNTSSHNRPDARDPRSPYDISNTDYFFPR
Source text: These experiments were effected to evaluate the effectiveness of the samples tested (prepared according to Examples 1-3 and 4) on the capacity of inhibiting the binding of IL-6 to its receptor expressed in human myeloma U266, normally used in vitro for this type of experiment, carried out with iodinated cytokine components for an evaluation in Radioligand Binding assays. The experimental procedure was effected as described in Taga T. et al., J Exp Med, 1987, 166:967-981. In short, the line of human myeloma U266 was used, sensitive to the cytotoxic activity of IL-6, expressing its relative receptor. […] At the end of the incubation, the cells were washed with phosphate buffer, centrifuged at 9,000 rpm and the pellet counted in a γ-counter.

[2] = molecular target: T2, fibrin clot (Homo sapiens, UniProt P02671+P02675+P02679); assay: In vitro fibrinolytic activity: dissolution of fibrin clot in coagulated plasma (absorbance at 405 nm); assay type: biochemical; conditions: 37° C.
T2 sequence (P02671 20-644 isoform P02671-2 limits assumed): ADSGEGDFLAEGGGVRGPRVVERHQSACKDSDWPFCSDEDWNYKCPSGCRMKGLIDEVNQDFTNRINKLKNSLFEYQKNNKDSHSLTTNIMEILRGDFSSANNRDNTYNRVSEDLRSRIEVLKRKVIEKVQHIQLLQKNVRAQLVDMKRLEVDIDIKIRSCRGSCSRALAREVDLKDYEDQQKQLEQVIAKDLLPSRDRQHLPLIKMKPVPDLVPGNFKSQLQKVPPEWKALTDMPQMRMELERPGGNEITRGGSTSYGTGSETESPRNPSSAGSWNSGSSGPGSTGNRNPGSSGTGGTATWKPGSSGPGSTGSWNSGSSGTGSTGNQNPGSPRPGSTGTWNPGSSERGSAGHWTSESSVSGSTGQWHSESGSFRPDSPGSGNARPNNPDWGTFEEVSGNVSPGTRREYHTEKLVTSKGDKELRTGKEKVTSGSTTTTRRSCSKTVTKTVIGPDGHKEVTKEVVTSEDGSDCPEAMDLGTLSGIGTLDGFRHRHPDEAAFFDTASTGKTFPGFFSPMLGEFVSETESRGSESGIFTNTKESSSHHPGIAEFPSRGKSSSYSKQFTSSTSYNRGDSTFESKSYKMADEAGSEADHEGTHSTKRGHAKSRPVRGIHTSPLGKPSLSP
T2 sequence (P02675 45-491 limits assumed): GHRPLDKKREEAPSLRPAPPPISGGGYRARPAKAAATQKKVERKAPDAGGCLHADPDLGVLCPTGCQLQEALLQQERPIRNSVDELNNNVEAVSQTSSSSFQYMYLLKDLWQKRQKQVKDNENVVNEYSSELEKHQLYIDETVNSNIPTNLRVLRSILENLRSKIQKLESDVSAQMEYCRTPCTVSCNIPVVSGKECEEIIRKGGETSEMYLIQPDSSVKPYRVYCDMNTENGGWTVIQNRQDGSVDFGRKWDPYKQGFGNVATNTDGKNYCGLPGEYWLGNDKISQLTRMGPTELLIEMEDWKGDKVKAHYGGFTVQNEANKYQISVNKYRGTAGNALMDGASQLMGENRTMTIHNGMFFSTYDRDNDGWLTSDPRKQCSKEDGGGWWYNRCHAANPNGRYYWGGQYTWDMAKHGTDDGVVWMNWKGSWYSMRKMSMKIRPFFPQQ
T2 sequence (P02679 27-437 isoform P02679-2 limits assumed): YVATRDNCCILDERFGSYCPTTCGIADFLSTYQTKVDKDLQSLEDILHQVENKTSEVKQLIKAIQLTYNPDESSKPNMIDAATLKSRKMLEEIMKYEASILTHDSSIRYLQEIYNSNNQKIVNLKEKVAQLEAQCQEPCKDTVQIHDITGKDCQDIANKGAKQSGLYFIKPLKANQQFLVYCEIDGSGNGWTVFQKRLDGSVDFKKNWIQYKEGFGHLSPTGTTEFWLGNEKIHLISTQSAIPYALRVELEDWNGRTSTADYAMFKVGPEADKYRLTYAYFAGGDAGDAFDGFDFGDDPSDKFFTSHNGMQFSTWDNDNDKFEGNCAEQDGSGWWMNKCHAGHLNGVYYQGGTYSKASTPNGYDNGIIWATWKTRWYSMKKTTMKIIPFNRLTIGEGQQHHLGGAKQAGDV
Method: The evaluation of the fibrinolytic properties of the products subjected to the test was compared with the acknowledged fibrinolytic activity of the plasmin. In particular, the dissolution rate of the fibrin network and formation of soluble products of the fibrin degradation (FDP), was evaluated.
In order to test the fibrinolytic effectiveness of the products subjected to testing, the blood samples were distributed in various test-tubes in which the clot formation was induced.
The formation of FDP was then evaluated after the addition of:
The freshly removed blood samples were distributed in various test-tubes containing sodium citrate in a ratio of 9:1. The test-tubes were immediately centrifuged at 3,000 rpm for 5 minutes. The plasma obtained was transferred to a new test-tube and immediately used for effecting the FDP evaluation.
Thrombin (300 mU/ml), preheated to 37° C. was added to the plasma samples, as activator of the fibrinogen in inducing the formation of the clot.
The following were added to the different cuvettes containing the fibrin clot:
a plasmin solution 0.5 mU, 5 mU, 50 mU, 500 mU and 1 U
solutions of HAS3 at concentrations of 25 mg/ml, 50 mg/ml, 100 mg/ml, 150 mg/ml and 200 mg/ml.
The absorbance variation at 405 nm for 60 sec. was evaluated spectrophotometrically for each cuvette. The reaction was left to proceed until the complete dissolution of the clot.
Coagulated plasma, plasmin solution and a solution of HAS3 200 KD and HAS3 20 KD were mixed in a ratio of 1:1 v/v and maintained at an operating temperature of 37° C.

sulfated hyaluronic acid degree 3 [HAS3]
inhibition of the binding of IL-6 to its receptor [1]: 100%
fibrinolytic activity (expressed in mU equivalents of Plasmin) ([2]; 25 mg/ml): 0.5 mU
fibrinolytic activity (expressed in mU equivalents of Plasmin) ([2]; 50 mg/ml): 3 mU
fibrinolytic activity (expressed in mU equivalents of Plasmin) ([2]; 100 mg/ml): 10 mU
fibrinolytic activity (expressed in mU equivalents of Plasmin) ([2]; 150 mg/ml): 50 mU
fibrinolytic activity (expressed in equivalents of Plasmin) ([2]; 200 mg/ml): 1.1 U
